Source: patent publication US3988340A, “6-Alkoxymethyl-1,2,3,5-tetrahydroimidazo[2,1-b]quinazolin-2-ones and 7-alkoxymethyl-6-[H]-1,2,3,4-tetrahydropyrimido[2,1-b]quinazolin-2-ones” (Bristol-Myers Company, priority 1975, dated 1976)
In brackets after ≈: the same amount, converted by molar mass. Like-named read-outs stand apart in the source and are kept apart here.

Key:
[1] = In vivo solubility of compound or metabolite; assay type: physicochemical; conditions: compound or its metabolite, versus BL-3459
[2] = tested on: biolaser induced thrombosis; experiment: Biolaser induced thrombosis in the rabbit ear chamber; assay type: in vivo
Source text: (§1) Methodology for these three in vivo techniques has been previously reported (4, 5).

Dog Platelet Rich Plasma [3] = experiment: In vitro inhibition of ADP induced platelet aggregation in the aggregometer, dog platelet rich plasma; assay type: cell-based; conditions: Canis lupus familiaris, read-out: EC50 & 95% Confidence Limits
[4] = Hypotensive activity compared with BL-3459; assay type: in vivo; conditions: associated with antiaggregative activity; versus BL-3459
[5] = tested on: blood platelet aggregation; experiment: Blood platelet antiaggregative potency compared with BL-3459; conditions: versus BL-3459
Dog Platelet Rich Plasma [6] = experiment: Ex vivo ADP induced platelet aggregation in dog PRP after oral drug administration; conditions: Canis lupus familiaris, PRP obtained before and 1 hr. after oral drug administration, read-out: ED50, ex vivo inhibition of ADP induced aggregation
Experimental: BL-4784A was also tested ex vivo in dogs where ADP was used to induce aggregation in PRP samples obtained before and 1 hr. after oral drug administration.
Before dosing the animals, blood samples are taken. The blood is centrifuged to obtain the blood platelet-rich plasma. Aggregation of this plasma is induced with ADP or collagen. This is the control.
The animals are then dosed with the compounds to be tested (orally or parenterally). Depending upon the route of administration, one to two hours are allowed to elapse after dosing. Blood is drawn and the same procedure as for the control in untreated animals.
The dose required to produce 50% inhibition of the aggregation is determined by dose response data obtained in this manner.

[7] = tested on: Rabbit Platelet Rich Plasma; experiment: In vitro inhibition of induced platelet aggregation in the aggregometer, rabbit platelet rich plasma; assay type: cell-based; conditions: Oryctolagus cuniculus, read-out: EC50 & 95% Confidence Limits
Experimental: The aggregometer method of Born (1), as modified by Mustard et al. (2) was used to assess the in vitro activity of the various compounds as to inhibition of adenosine diphosphate (ADP) and collagen induced platelet aggregation. Platelet rich plasma was separated by centrifugation from citrated (3.8 percent) rabbit blood. […] (3) was used to induce aggregation. The various compounds tested were dissolved in dimethylsulfoxide (DMSO) so that 5 mcl. added to the platelet rich plasma would yield the desired test concentration. Vehicle control trials were done and compared with aggregation induced in platelet rich plasma containing various concentrations of the test compounds. Dose response curves were obtained and Effective Concentration (EC50) values calculated.
Compound 12a (BL-4784A) has been evaluated in a series of in vitro, ex vivo and in vivo animal models of platelet aggregation and thrombosis.

[8] = Mean aortic blood pressure in rats after oral administration; assay type: in vivo; conditions: 50 mg/kg oral; for Mean Aortic Blood Pressure % Change / Mean Aortic Blood Pressure: N=9, mean ± 1 S.E.
Experimental: The blood pressure of unanesthetized rats and dogs was measured directly by means of a transducer attached to an intra-arterial cannula and in anesthetized dogs by a mercury manometer attached to a carotid cannula.
The compounds of the instant invention were tested as the hydrochloride salts by the above method in normotensive rats in doses of 50 mg./kg. orally.
Compound 12a (BL-4784a) was tested for its hypotensive activity in rats as follows:
Rats were dosed orally with the test drug (50 mg/kg) or saline and blood pressure measurements were made at 30, 90, 150 and 300 mins. after drug administration.
Saline administration in a volume equivalent to drug administration had only a minimal effect.

[9] = Crystal deposits in tissues of animal species evaluated; assay type: in vivo; conditions: any tissue of any animal species evaluated up to the present time
[10] = tested on: electrically induced carotid artery thrombosis; experiment: Electrically induced carotid artery thrombosis in the dog; assay type: in vivo; conditions: Canis lupus familiaris, po
Source text: as §1

[11] = Crystal formation in the liver of dogs at very high doses; assay type: in vivo, dog; conditions: compound or a metabolite

COCc1cccc2c1CN1CC(=O)NC1=N2 [Compound 12a, 6-(α-methoxymethyl)-1,2,3,5-tetrahydroimidazo[2,1-b]quinazolin-2-one]
Solubility in vivo [1]: more soluble in vivo
ED50 ([2]; Oryctolagus cuniculus, rabbit ear chamber, po): 5.3 mg/kg
Activity in in vivo animal models of thrombosis ([2]; result in words for three in vivo animal models): significant activity in three in vivo animal models
EC50 (Dog Platelet Rich Plasma [3]): 0.19 µg/mL (≈ 0.822 µM)
Degree of hypotensive activity [4]: lower degree of hypotensive activity
Potency as blood platelet antiaggregate [5]: more potent than BL-3459
ED50 (Dog Platelet Rich Plasma [6]): 1.79 mg/kg
EC50 ([7]; ADP induced (2.93 × 10^-5 M)): 0.2 µg/mL (≈ 0.865 µM)
EC50 ([7]; Antigen-Antibody complex (egg albumin, 2 μg/ml), PRP from sensitized rabbits): 0.13 µg/mL
EC50 ([7]; Arachidonic acid induced (50 μg/ml)): 0.27 µg/mL (≈ 1.17 µM)
EC50 ([7]; Collagen induced): 0.09 µg/mL (≈ 0.389 µM)
EC50 ([7]; Thrombin induced (1 unit per ml)): 0.63 µg/mL (≈ 2.72 µM)
Aortic blood pressure lowering ([8]; result in words): significant lowering of aortic blood pressure
Mean Aortic Blood Pressure % Change ([8]; 30 min): -33 ± 4%
Mean Aortic Blood Pressure ([8]; 30 min, *P = <.05): 73 ± 5 mm Hg
Mean Aortic Blood Pressure % Change ([8]; 90 min): -27 ± 4%
Mean Aortic Blood Pressure ([8]; 90 min, *P = <.05): 79 ± 3 mm Hg
Mean Aortic Blood Pressure % Change ([8]; 150 min): -23 ± 2%
Mean Aortic Blood Pressure ([8]; 150 min, *P = <.05): 84 ± 3 mm Hg
Mean Aortic Blood Pressure % Change ([8]; 300 min): -20 ± 4%
Mean Aortic Blood Pressure ([8]; 300 min, *P = <.05): 87 ± 3 mm Hg
Mean Aortic Blood Pressure ([8]; time 0 min (before drug)): 111 ± 3 mm Hg
Crystal deposits in tissue [9]: no crystal deposits have been observed in any tissue of any animal species
ED50 [10]: 10.5 mg/kg

Cc1cccc2c1CN1CC(=O)NC1=N2 [BL-3459]
Crystal formation in liver [11]: formed crystals in the liver of dogs at very high doses
